Reference: patent publication US12012417B2, “N-substituted tetrahydrothienopyridine derivatives and uses thereof” (NOVARTIS AG, priority 2018, dated 2024)
pEC50: −log10 of the molar value. Counter-ions that a name gives are not always drawn.

Key:
[1] = test system: Dengue 1 virus MY97-10245; assay: High-content imaging cell-based flavivirus immunodetection (HCl-CFI) assay, Dengue 1; conditions: Dengue virus, A549, 48 h, read-out: Dengue 1 virus MY97-10245 in A549 using HCl [Inhibitor/IC50] Qualified AC50
[2] = test system: Dengue 4 virus MY01-22713; assay: High-content imaging cell-based flavivirus immunodetection (HCl-CFI) assay, Dengue 4; conditions: Dengue virus, A549, 48 h, read-out: Dengue 4 virus MY01-22713 in A549 using HCl [Inhibitor/IC50] Qualified AC50, A549 cells, 48 h, viral E protein expression
[3] = test system: Dengue 3 virus MY05-34640-WT-C6/36; assay: High-content imaging cell-based flavivirus immunodetection (HCl-CFI) assay, Dengue 3; conditions: Dengue virus, A549, 48 h, read-out: Dengue 3 virus MY05-34640-WT-C6/36 in A549 using HCl [Inhibitor/IC50] Qualified AC50
[4] = test system: Dengue 2 virus MY97-10340; assay: High-content imaging cell-based flavivirus immunodetection (HCl-CFI) assay, Dengue 2; conditions: Dengue virus, A549, 48 h, read-out: Dengue 2 virus MY97-10340 in A549 using HCl [Inhibitor/IC50] Qualified AC50, A549 cells, MOI 0.3, 48 h, viral E protein expression
Summary of the method: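 A549 cells infected at MOI 0.3, treated with 3-fold, 10-point compound dilutions for 48 h. After paraformaldehyde fixation, viral E protein immunostained with 4G2 antibody and nuclei counterstained; imaged by high-content imaging. EC50 = concentration reducing E protein expression by 50%, from dose-response curves.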

`N#Cc1c(NC(=O)Cc2ccc(S(N)(=O)=O)s2)sc2c1CN(CC1CCCCC1)CC2` [Example 84, N-(3-cyano-5-(cyclohexylmethyl)-4,5,6,7-tetrahydrothieno[3,2-c]pyridin-2-yl)-2-(5-sulfamoylthiophen-2-yl)acetamide] showed a pEC50 [1] greater than 7.00, a pEC50 [2] greater than 7.00 and a pEC50 [3] greater than 7.00. The pEC50 [4] was greater than 7.00.

For `CC1Cc2sc(NC(=O)Cc3ccc(S(N)(=O)=O)cc3)c(C#N)c2CN1Cc1cc(F)cc(F)c1` (stereo not drawn) [Example 85, N-(3-cyano-5-(3,5-difluorobenzyl)-6-methyl-4,5,6,7-tetrahydrothieno[3,2-c]pyridin-2-yl)-2-(4-sulfamoylphenyl)acetamide], the pEC50 [1] was 6.00 to 7.00, the pEC50 [2] was greater than 7.00 and the pEC50 [3] was greater than 7.00. The pEC50 [4] was greater than 7.00.

In the case of `COCCOc1cc(CC(=O)Nc2sc3c(c2C#N)CN(Cc2cccc(F)c2)C(C)C3)ccc1S(N)(=O)=O` (stereo not drawn) [Example 86, N-(3-cyano-5-(3-fluorobenzyl)-6-methyl-4,5,6,7-tetrahydrothieno[3,2-c]pyridin-2-yl)-2-(3-(2-methoxyethoxy)-4-sulfamoylphenyl)acetamide], the pEC50 [1] was 6.00 to 7.00, the pEC50 [2] was greater than 7.00 and the pEC50 [3] was greater than 7.00. The pEC50 [4] was greater than 7.00.

Compound `CCC1Cc2sc(NC(=O)Cc3ccc(S(N)(=O)=O)cc3)c(C#N)c2CN1Cc1cccc(F)c1` (stereo not drawn) [Example 87, N-(3-cyano-6-ethyl-5-(3-fluorobenzyl)-4,5,6,7-tetrahydrothieno[3,2-c]pyridin-2-yl)-2-(4-sulfamoylphenyl)acetamide] has a pEC50 [1] of 6.00 to 7.00, a pEC50 [2] greater than 7.00 and a pEC50 [3] greater than 7.00. The pEC50 [4] was greater than 7.00.

For `Cn1cc(S(N)(=O)=O)cc1CC(=O)Nc1sc2c(c1C#N)CN(CC1CCCCC1)CC2` [Example 88, N-(3-cyano-5-(cyclohexylmethyl)-4,5,6,7-tetrahydrothieno[3,2-c]pyridin-2-yl)-2-(1-methyl-4-sulfamoyl-1H-pyrrol-2-yl)acetamide], the pEC50 [1] was 6.00 to 7.00, the pEC50 [2] was greater than 7.00 and the pEC50 [3] was greater than 7.00. It also gave a pEC50 [4] greater than 7.00.

With `CCOc1cc(CC(=O)Nc2sc3c(c2C#N)CN(Cc2cccc(F)c2)CC3)ccc1C(N)=O` [Example 89, 4-(2-((3-cyano-5-(3-fluorobenzyl)-4,5,6,7-tetrahydrothieno[3,2-c]pyridin-2-yl)amino)-2-oxoethyl)-2-ethoxybenzamide] the pEC50 [1] was 6.00 to 7.00, the pEC50 [2] was 6.00 to 7.00 and the pEC50 [3] was 6.00 to 7.00. For the same compound, the pEC50 [4] was 6.00 to 7.00.

In the case of `CC(c1ccccc1)N1CCc2c(sc(NC(=O)Cc3ccc(S(N)(=O)=O)cc3)c2C#N)C1` (stereo not drawn) [Example 90, N-(3-cyano-6-(1-phenylethyl)-4,5,6,7-tetrahydrothieno[2,3-c]pyridin-2-yl)-2-(4-sulfamoylphenyl)-acetamide hydrochloride], the pEC50 [1] was less than 6.00, the pEC50 [2] was 6.00 to 7.00 and the pEC50 [3] was 6.00 to 7.00. For the same compound, the pEC50 [4] was 6.00 to 7.00.

`N#Cc1c(NC(=O)Cc2ccc(S(N)(=O)=O)cc2)sc2c1CCN(CC1CCCCC1)C2` [Example 92, N-(3-cyano-6-(cyclohexylmethyl)-4,5,6,7-tetrahydrothieno[2,3-c]pyridin-2-yl)-2-(4-sulfamoylphenyl) acetamide] gave a pEC50 [1] of 6.00 to 7.00, a pEC50 [2] greater than 7.00 and a pEC50 [3] of 6.00 to 7.00. For the same compound, the pEC50 [4] was greater than 7.00.

In the case of `N#Cc1c(NC(=O)Cc2ccc(S(N)(=O)=O)cc2)sc2c1CCN(Cc1cc(F)cc(F)c1)C2` [Example 93, N-(3-cyano-6-(3,5-difluorobenzyl)-4,5,6,7-tetrahydrothieno[2,3-c]pyridin-2-yl)-2-(4-sulfamoylphenyl) acetamide], the pEC50 [1] was 6.00 to 7.00, the pEC50 [2] was greater than 7.00 and the pEC50 [3] was greater than 7.00. For the same compound, the pEC50 [4] was greater than 7.00.

Work on `COc1ccccc1CN1CCc2c(sc(NC(=O)Cc3ccc(S(N)(=O)=O)cc3)c2C#N)C1` [Example 94, N-(3-cyano-6-(2-methoxybenzyl)-4,5,6,7-tetrahydrothieno[2,3-c]pyridin-2-yl)-2-(4-sulfamoylphenyl) acetamide] yielded a pEC50 [1] of less than 6.00, a pEC50 [2] of 6.00 to 7.00 and a pEC50 [3] of 6.00 to 7.00. For the same compound, the pEC50 [4] was less than 6.00.

Compound `Cc1cccc(CN2CCc3c(sc(NC(=O)Cc4ccc(S(N)(=O)=O)cc4)c3C#N)C2)c1C` [Example 95, N-(3-cyano-6-(2,3-dimethylbenzyl)-4,5,6,7-tetrahydrothieno[2,3-c]pyridin-2-yl)-2-(4-sulfamoylphenyl) acetamide] has a pEC50 [1] of 6.00 to 7.00, a pEC50 [2] greater than 7.00 and a pEC50 [3] greater than 7.00. It also gave a pEC50 [4] of 6.00 to 7.00.

Compound `Cc1ccccc1CN1CCc2c(sc(NC(=O)Cc3ccc(S(N)(=O)=O)cc3)c2C#N)C1` [Example 97, N-(3-cyano-6-(2-methylbenzyl)-4,5,6,7-tetrahydrothieno[2,3-c]pyridin-2-yl)-2-(4-sulfamoylphenyl)acetamide] has a pEC50 [1] of 6.00 to 7.00, a pEC50 [2] of 6.00 to 7.00 and a pEC50 [3] of 6.00 to 7.00. The pEC50 [4] was 6.00 to 7.00.

Compound `Cc1ccc(CN2CCc3c(sc(NC(=O)Cc4ccc(S(N)(=O)=O)cc4)c3C#N)C2)cc1` [Example 98, N-(3-cyano-6-(4-methylbenzyl)-4,5,6,7-tetrahydrothieno[2,3-c]pyridin-2-yl)-2-(4-sulfamoylphenyl)acetamide] has a pEC50 [1] of less than 6.00, a pEC50 [2] of 6.00 to 7.00 and a pEC50 [3] of 6.00 to 7.00. It also gave a pEC50 [4] of 6.00 to 7.00.

For `N#Cc1c(NC(=O)Cc2ccc(S(N)(=O)=O)cc2)sc2c1CCN(Cc1ccccc1F)C2` [Example 99, N-(3-cyano-6-(2-fluorobenzyl)-4,5,6,7-tetrahydrothieno[2,3-c]pyridin-2-yl)-2-(4-sulfamoylphenyl)acetamide], the pEC50 [1] was less than 6.00, the pEC50 [2] was 6.00 to 7.00 and the pEC50 [3] was 6.00 to 7.00. It also gave a pEC50 [4] of 6.00 to 7.00.

Compound `N#Cc1c(NC(=O)Cc2ccc(S(N)(=O)=O)cc2)sc2c1CCN(Cc1ccc(F)cc1)C2` [Example 101, N-(3-cyano-6-(4-fluorobenzyl)-4,5,6,7-tetrahydrothieno[2,3-c]pyridin-2-yl)-2-(4-sulfamoylphenyl)acetamide] has a pEC50 [1] of 6.00 to 7.00, a pEC50 [2] greater than 7.00 and a pEC50 [3] of 6.00 to 7.00. For the same compound, the pEC50 [4] was 6.00 to 7.00.

Compound `Cc1cccc(CN2CCc3c(sc(NC(=O)Cc4ccc(S(N)(=O)=O)cc4)c3C#N)C2)c1` [Example 102, N-(3-cyano-6-(3-methylbenzyl)-4,5,6,7-tetrahydrothieno[2,3-c]pyridin-2-yl)-2-(4-sulfamoylphenyl)acetamide] has a pEC50 [1] of less than 6.00, a pEC50 [2] of 6.00 to 7.00 and a pEC50 [3] of 6.00 to 7.00. It also gave a pEC50 [4] of 6.00 to 7.00.

Compound `Cc1ccccc1CN1CCc2c(sc(NC(=O)Cc3ccc(S(C)(=O)=O)cc3)c2C#N)C1` [Example 103, N-(3-cyano-6-(2-methylbenzyl)-4,5,6,7-tetrahydrothieno[2,3-c]pyridin-2-yl)-2-(4-(methylsulfonyl)phenyl)acetamide] has a pEC50 [1] of 6.00 to 7.00, a pEC50 [2] of 6.00 to 7.00 and a pEC50 [3] of 6.00 to 7.00. For the same compound, the pEC50 [4] was 6.00 to 7.00.

`Cc1cccc(CN2CCc3c(sc(NC(=O)Cc4ccc(S(C)(=O)=O)cc4)c3C#N)C2)c1` [Example 104, N-(3-cyano-6-(3-methylbenzyl)-4,5,6,7-tetrahydrothieno[2,3-c]pyridin-2-yl)-2-(4-(methylsulfonyl)phenyl)acetamide] was tested, and the pEC50 [1] was less than 6.00, the pEC50 [2] was greater than 7.00 and the pEC50 [3] was 6.00 to 7.00. The pEC50 [4] was 6.00 to 7.00.

`N#Cc1c(NC(=O)Cc2ccc(S(N)(=O)=O)cc2)sc2c1CCN(Cc1ccc(F)c(F)c1)C2` [Example 105, N-(3-cyano-6-(3,4-difluorobenzyl)-4,5,6,7-tetrahydrothieno[2,3-c]pyridin-2-yl)-2-(4-sulfamoylphenyl)acetamide] gave a pEC50 [1] of less than 6.00, a pEC50 [2] of 6.00 to 7.00 and a pEC50 [3] of 6.00 to 7.00. The pEC50 [4] was 6.00 to 7.00.

Compound `N#Cc1c(NC(=O)Cc2ccc(S(N)(=O)=O)cc2)sc2c1CCN(Cc1cccc(F)c1F)C2` [Example 106, N-(3-cyano-6-(2,3-difluorobenzyl)-4,5,6,7-tetrahydrothieno[2,3-c]pyridin-2-yl)-2-(4-sulfamoylphenyl)acetamide] has a pEC50 [1] of 6.00 to 7.00, a pEC50 [2] greater than 7.00 and a pEC50 [3] greater than 7.00. It also gave a pEC50 [4] greater than 7.00.

`N#Cc1c(NC(=O)Cc2ccc(S(N)(=O)=O)cc2)sc2c1CCN(Cc1ccc(F)cc1Cl)C2` [Example 107, N-(6-(2-chloro-4-fluorobenzyl)-3-cyano-4,5,6,7-tetrahydrothieno[2,3-c]pyridin-2-yl)-2-(4-sulfamoylphenyl)acetamide] showed a pEC50 [1] of 6.00 to 7.00, a pEC50 [2] greater than 7.00 and a pEC50 [3] of 6.00 to 7.00. The pEC50 [4] was 6.00 to 7.00.

`COC(=O)c1cccc(CN2CCc3c(sc(NC(=O)Cc4ccc(S(N)(=O)=O)cc4)c3C#N)C2)c1` [Example 108, Methyl 3-((3-cyano-2-(2-(4-sulfamoylphenyl)acetamido)-4,7-dihydrothieno[2,3-c]pyridin-6(5H)-yl)methyl)benzoate] was tested, and the pEC50 [1] was 6.00 to 7.00, the pEC50 [2] was greater than 7.00 and the pEC50 [3] was greater than 7.00. For the same compound, the pEC50 [4] was greater than 7.00.

In the case of `Cc1cc(C)cc(CN2CCc3c(sc(NC(=O)Cc4ccc(S(N)(=O)=O)cc4)c3C#N)C2)c1` [Example 110, N-(3-cyano-6-(3,5-dimethylbenzyl)-4,5,6,7-tetrahydrothieno[2,3-c]pyridin-2-yl)-2-(4-sulfamoylphenyl)acetamide], the pEC50 [1] was 6.00 to 7.00, the pEC50 [2] was greater than 7.00 and the pEC50 [3] was greater than 7.00. For the same compound, the pEC50 [4] was greater than 7.00.

`N#Cc1c(NC(=O)Cc2ccc(S(N)(=O)=O)cc2)sc2c1CCN(Cc1c(F)cccc1Cl)C2` [Example 111, N-(6-(2-chloro-6-fluorobenzyl)-3-cyano-4,5,6,7-tetrahydrothieno[2,3-c]pyridin-2-yl)-2-(4-sulfamoylphenyl)acetamide] gave a pEC50 [1] of 6.00 to 7.00, a pEC50 [2] greater than 7.00 and a pEC50 [3] greater than 7.00. The pEC50 [4] was greater than 7.00.
